Experimental data from patent US20200283498A1, “T CELL RECEPTOR FUSIONS AND CONJUGATES AND METHODS OF USE THEREOF” (Altor Bioscience LLC, priority 2008, published 2020).

Tests used:
[1] = test system: human A375 cell line tumors; assay: A375 primary tumor growth model in nude mice
[2] = test system: HT29 (p53+/HLA-A2.1-) tumors; assay: HT29 xenograft tumor growth in nude mice; assay type: in vivo; settings: not shown
Protocol: (§1) The tumor lines used in this study were MBA-MD-231 (p53+/HLA-A2.1+), PANC1 (p53+/HLA-A2.1+), AsPC1(p53-/HLA-A2.1-) and HT29 (p53+/HLA-A2.1-). […] J. Immunol. 176:3223. Primary tumors derived from these cells were established in nude mice following subcutaneous injection. Mice were then treated as previously described with 264scTCR/IL-2, rhIL-2 or PBS and tumor volumes were measured.

[3] = test system: YAC-1 target cells; assay: Lytic activity of stimulated nude mouse splenocytes (calcein release); assay type: cell-based; settings: four days in equivalent molar amounts; YAC-1 targets
[4] = test system: A375 tumors; assay: Tumor infiltration of adoptively transferred splenocytes pre-coated with scTCR/IL-2; assay type: in vivo, nude mice; settings: 24 hrs after transfer of pre-coated splenocytes
Protocol: FIG. 28 depicts targeted tumor infiltration of adoptively transferred splenocytes pre-coated with scTCR/IL-2. […] Boxes, interquartile range of distribution (25th-75th percentile); line within box, median; whisker, 5th-[…]. *, P<0.0001; **, P<0.0001. At least three tumors per group and 10 fields per tumor were analyzed.
The activated splenocytes were isolated and incubated with the respective scTCR/IL-2 fusion proteins in vitro to coat the surface of the cells prior to transfer into A375 tumor bearing nude mouse recipients. Tumors were then isolated 24 hrs later and levels of CD45R+NK cells were assessed.

[5] = test system: immune cells (splenocytes, lymph nodes, bone marrow); assay: In vivo activation of immune cells in A375 tumor-bearing nude mice
Excerpt: FIG. 19A and FIG. 19B depict in vivo activation of immune cells in mice following scTCR/IL-2 treatment. […] Splenocytes were isolated at the indicated times and analyzed by flow cytometry for expression of CD25, CD122 or pan-NK markers. The plots indicate the percentage of CD25, CD122 or pan-NK-positive staining (dark line) compared with splenocyte staining with an isotype control mAb (red line).
The effect of the scTCR/IL-2 fusion proteins on immune cells was also investigated in vivo. […] Changes in IL-2R subunit expression were also assessed in immune cells isolated from the spleens, lymph nodes and bone marrow of 264scTCR/IL-2- or MART-1scTCR/IL-2-treated mice.

[6] = test system: p53+/HLA-A2.1+ MDA-MB-231 tumor cells; assay: MDA-MB-231 xenograft tumor growth in nude mice; assay type: in vivo; settings: compared to PBS; 9 doses i.v.
[7] = test system: p53-/HLA-A2.1- AsPC1 tumor cells; assay: AsPC1 xenograft tumor growth in nude mice; assay type: in vivo; settings: 9 doses i.v.
Protocol: as §1

[8] = test system: p53 (aa 264-272) peptide-loaded T2 cells and CTLL-2 cells; assay: Cell-cell conjugation assay (flow cytometry); assay type: cell-based, human T2 cells, mouse CTLL-2 cells
Protocol: FIG. 20A, FIG. 20B, FIG. 20C, and FIG. 20D depict in vitro conjugation of IL-2 receptor-bearing immune cells with antigen presenting target cells mediated by scTCR/IL-2 fusion protein. T2 cells were loaded with either p53 (aa 264-272) or p53 (aa 149-157) (control) peptides and then labeled with HE. CTLL-2 cells were labeled with calcein AM. Labeled cells were mixed and incubated in the presence or absence of 264scTCR/IL-2 fusion protein and the samples were analyzed by flow cytometry. Assay conditions including loading peptide used and presence or absence of fusion protein are indicated beneath each histogram. Single stained regions are marked 1 and 3 and the double stained cell poplulation is marked 2.
In this experiment, T2 cells pulsed with either the 149 or 264 peptide. CTLL-2 cells were hydrodiethidium (HE) labeled and incubated for 20 minutes at RT with an equal number of calcein-AM labeled T2 cells pulsed with either 50 μg of 149 or 264 peptide. […] In contrast, conjugate formation was not observed with the mixture that included the 149 peptide pulsed T2 cells (B; 0.88%). Cell samples were washed one time before analysis on the flow cytometer.
Samples were analyzed by flow cytometry. […] Thus, the scTCR/IL-2 fusion protein could be useful in a therapeutic approach for bringing together immune effector cells and tumor cells and stimulating immune cell-mediated activity against the tumor.

[9] = test system: p53+/HLA-A2.1+ PANC1 tumor cells; assay: PANC1 xenograft tumor growth in nude mice; assay type: in vivo; settings: 9 doses i.v.
Protocol: as §1

[10] = test system: CD45R+ cells in tumors; assay: Immune cell infiltration into tumors (CD45R immunohistochemistry); assay type: in vivo, nude mice
[11] = test system: human NSCLC A549-A2 tumor cells; assay: Adoptive transfer of preincubated NK cells in A549-A2 experimental metastasis model; assay type: in vivo, athymic nude mice; settings: CTX 200 mg/kg ip days 14, 21; NK cells preincubated with the protein iv days 16, 22 (CTX group: no NK cells)

264scTCR/IL-2: soluble three domain single-chain TCR specific to human p53 (aa 264-272)/HLA-A2.1 linked to human IL-2 via a peptide linker
mice that developed tumors ([1]; 3 μg dose, 9 doses): all of the mice developed tumors
average tumor size ([1]; 3 μg dose, 9 doses, vs PBS): significantly smaller than that of the PBS treated mice
A375 tumor growth compared to PBS ([1]; 0.5 mg/kg i.v., four daily injections, 10-day rest, four more): potent antitumor activity
mice that developed tumors ([1]; 0.5 mg/kg/dose, 9 doses): six of the eight
tumor weight at the end of the study ([1]; 1.6 mg/kg and 0.5 mg/kg doses vs rhIL-2 0.4 mg/kg): significantly more effective at reducing tumor burden than the high dose of rhIL-2
mice that developed tumors ([1]; 1.6 mg/kg i.v., 9 doses, tumors established three days): 50%
mice that developed tumors ([1]; 1.6 mg/kg/dose, 9 doses): four of the eight
tumor growth ([1]; 0.5 or 0.2 mg/kg, four daily injections, 10-day rest, four more, compared with 0.125 mg/kg rhIL-2): significantly inhibited tumor growth
tumor growth following two dosing cycles ([1]; 264scTCR/IL-2 0.5 mg/kg daily x4 per cycle, rhIL-2 0.4 mg/kg every 8 hrs for five days per cycle): inhibited tumor growth to a similar degree
growth of well-established tumors ([1]; tumors grown to 75 or 200 mm^3, 9 doses i.v.): marked inhibition of tumor growth and partial to complete regression of tumors in most mice
tumor growth [2]: tumor outgrowth was not inhibited
lytic activity of stimulated mouse splenocytes [3]: Equivalent levels of lytic activity
cells bound with fusion protein infiltrating into tumors [4]: 3.0 BF1+ cells/field of view
infiltration of CD45R+ cells [4]: 10.3 CD45R+ cells/field of view
NK cells ([5]; repeated administration): treatment-dependent increase in NK cells
lymph nodes and spleens ([5]; repeated daily i.v. 32 μg/dose): enlargement of lymph nodes and spleens
serum IFN-γ levels ([5]; repeated daily i.v. 32 μg/dose): increase in serum IFN-γ levels
expression of CD122 and CD25 in cells from lymph nodes and bone marrow ([5]; repeated daily treatment): Elevated expression
Splenocytes expressing IL-2Rα (CD25) or IL-2≈ (CD122) ([5]; repeated daily treatments, peak one day after fourth treatment): increased approximately three-fold
tumor growth [6]: significant antitumor effect
tumor growth [7]: tumor outgrowth was not inhibited
conjugated (double stained) cells, share of total population ([8]; 149 control peptide-loaded T2 cells + CTLL-2 cells, fusion protein present (or fusion protein absent)): approximately 0.9%
conjugated (double stained) cells, share of total population ([8]; 149 control peptide-loaded T2 cells + CTLL-2 cells, fusion protein present (or fusion protein absent), listed as 264 scTCR-IL-2): 0.88%
conjugated (double stained) cells, share of total population ([8]; 264 peptide-loaded T2 cells + CTLL-2 cells, fusion protein present (1 μg)): 3.25%
tumor growth [9]: significant antitumor effects
CD45R-positive cells in A375 tumors ([10]; A375 (p53+/HLA.A2.1+) tumor sections): Complete tumor infiltration of large CD45R+ cells
CD45R+ cell infiltration ([10]; A375 tumors, 10 μg/dose, four days of daily treatment): 14.5 CD45R+ cells/field of view
CD45R-positive cells in AsPC1 tumors ([10]; AsPC1 (p53-/HLA-A2.1-) tumor sections): no differences were observed between treatment groups

O=P1(N(CCCl)CCCl)NCCCO1 (centres unmarked) [CTX, cyclophosphamide, reference compound]
Median survival [11]: 52 days
